{"source": "patent US10100284B2", "about": "“Method for inducing differentiation of pluripotent stem cells into endodermal cells” (TOAGOSEI CO., LTD., priority 2013, dated 2018)", "key": {"[1]": {"test_system": "human-derived iPS cells (clone name: 201B2 or 201B7)", "test": "Stem cell differentiation-inducing activity based on iPS cell transformation (optical microscope morphology)", "conditions": "peptide concentration 4.0 μM; eight days after the beginning of culture; FIG. 1; peptide-free group 80% or more black (undifferentiated)", "procedure": "The differentiation-inducing activity of a differentiation-inducing synthetic peptide (Sample 1) obtained in Example 1 above was evaluated based on the transformation of iPS cells cultured and passaged in vitro. A peptide-free group was also provided as a comparative example. The details of the evaluation test were as follows.\nCells supplied by the Kyoto University Center for iPS cell Research and Application were used as the human-derived iPS cells in this example (clone name: 201B2 or 201B7, reference source: Takahashi K et al., Cell, 131, 861-872 (2007)). For the feeder cells used in culturing these iPS cells, mouse embryonic fibroblasts (MEF cells) were used to passage (maintain) the iPS cells, while mouse embryonic fibroblasts (cell strain SNL 76/7) supplied under license by the Baylor College of Medicine were used in testing to evaluate the stem cell differentiation-inducing activity of the differentiation-inducing synthetic peptide (Sample 1).\nFeeder cells that had been inactivated by mitomycin C treatment were seeded ahead of time on a gelatin-coated 24-well plate 1 to 4 days before seeding of the iPS cells. […]"}, "[2]": {"test_system": "iPS cells (clone name: 201B2 or 201B7)", "test": "AFP ELISA of iPS cell culture supernatant", "assay_type": "cell-based, human", "conditions": "peptide concentration in medium 6 μM; as culture time increased; FIG. 4", "procedure": "The stem cell differentiation-inducing activity of the differentiation-inducing synthetic peptide (Sample 1) obtained in Example 1 was evaluated by quantifying changes over time in the expressed amounts (typically extracellular secretion) of AFP and ALB, which are proteins known as markers of differentiation into endodermal cells. It is known that AFP is expressed in cells that have differentiated into liver precursor cells among the endodermal cells, while ALB is expressed in cells that have differentiated sufficiently to function effectively as hepatocytes (that is, hepatocytes or hepatocyte-like cells). […]\n200 μL of a substrate solution obtained by mixing 1 volume each of the accessory coloring reagent (A) and coloring reagent (B) was added per well, and left standing for 30 minutes in the dark. […] Absorbance A450 at 450 nm and absorbance A550 at 550 nm were then measured with a spectrophotometer in the reaction liquid in the wells.\nAbsorbance values A(450-550) were calculated by subtracting the absorbance A550 from the absorbance A450 obtained by the previous measurement (that is, absorbance A(450-550)=[…]) for each of the samples from the AFP evaluation test group and ALB evaluation test group. […]"}}, "note": "Where no end group is shown, it is not given here."}
{"substance": "LLLLLLVGLTAPAGKKRTLRKNDRKKR-CONH2 (LLLLLLVGLTAPAGKKRTLRKNDRKKR-NH2) [Sample 1]", "values": [{"measurement": "part of microscope field appearing white (occupied by colonies of differentiated iPS cells)", "setting": "[1]", "value": "≥ 80", "unit": "%"}, {"measurement": "AFP level of the culture supernatant in comparison with peptide-free group with the same culture time", "setting": "[2]", "value": "increased dramatically"}]}
